According to US20260317324A1, “BIFUNCTIONAL COMPOUNDS FOR DEGRADING BRAF VIA UBIQUITIN PROTEOSOME PATHWAY” (Nurix Therapeutics, Inc., priority 2023, published 2026):

What was measured:
Type in all cases: cell-based
BRAF G469A = target: T1, BRAF G469A (Homo sapiens, UniProt P15056, G469A); assay: BRAF HiBiT degradation assay, C-terminal HiBiT-tagged BRAF G469A overexpressed in HCT-116 BRAF−/− cells (clone 34), Nano-Glo HiBiT Lytic assay
T1 construct: Horizon Discovery (HCT-116 BRAF−/− cells); host or cells: HCT-116 BRAF−/− cells, clone 34, lentiviral transduction
Method in brief: (§1)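 We quantified degradation of the C-terminally HiBiT-tagged, overexpressed mutant by lytic luminescence, normalizing to DMSO-treated cells with wild-type HCT-116 background subtracted. Dose series ran from 1 μM to 0.01 nM at 0.2% DMSO. Observed Dmax is % degraded at maximal effect.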

BRAF V600E = target: T2, BRAF V600E (Homo sapiens, UniProt P15056, V600E); assay: BRAF HiBiT degradation assay, C-terminal HiBiT-tagged BRAF V600E A375 cells (clone 1F10), Nano-Glo HiBiT Lytic assay; conditions: for Dmax: A-375
T2 construct: endogenous C-terminal HiBiT fusion tag on BRAF V600E allele; endogenous in cells; host or cells: A375 clone 1F10 (CRISPR-Cas9 knock-in of the HiBiT tag; parental A375 from ATCC)
Method in brief: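 Steps: seed HiBiT-tagged A375 clone 1F10 cells; incubate 24 h, 37 °C, 5% CO2; add compound (11 half-log points from 1 μM, 0.2% DMSO); lyse with HiBiT detection reagent plus LgBiT for 10 min; read luminescence; fit % protein remaining against concentration.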

BRAF D594G = target: T3, BRAF D594G (Homo sapiens, UniProt P15056, D594G); assay: BRAF HiBiT degradation assay, C-terminal HiBiT-tagged BRAF D594G overexpressed in HCT-116 BRAF−/− cells (clone 63), Nano-Glo HiBiT Lytic assay
T3 construct: Horizon Discovery (HCT-116 BRAF−/− cells); host or cells: HCT-116 BRAF−/− cells, clone 63, lentiviral transduction
Method in brief: as §1

BRAF G466V = target: T4, BRAF G466V (Homo sapiens, UniProt P15056, G466V); assay: BRAF HiBiT degradation assay, C-terminal HiBiT-tagged BRAF G466V overexpressed in HCT-116 BRAF−/− cells (clone 8), Nano-Glo HiBiT Lytic assay
T4 construct: Horizon Discovery (HCT-116 BRAF−/− cells); host or cells: HCT-116 BRAF−/− cells, clone 8, lentiviral transduction
Method in brief: as §1

[1] = Class 2, BRAF G469A, DC50 at 50%: fitted conc. at Y=50
[2] = HCT-116, Class 2, BRAF G469A, percentage protein degraded at maximal compound effect relative to DMSO
[3] = A375 (BRAF V600E), DC50 at 50%: fitted conc. at Y=50
[4] = A375 (BRAF V600E), percentage protein degraded at maximal compound effect relative to DMSO
[5] = BRAF D594G, DC50 at 50%: fitted conc. at Y=50
[6] = HCT-116, BRAF D594G, percentage protein degraded at maximal compound effect relative to DMSO
[7] = BRAF G466V, DC50 at 50%: fitted conc. at Y=50
[8] = HCT-116, BRAF G466V, percentage protein degraded at maximal compound effect relative to DMSO
[9] = BRAF G469A (Class 2), HCT-116 BRAF−/− cells, DC50 at 50% degradation
[10] = BRAF G469A (Class 2), HCT-116 BRAF−/− cells, observed Dmax relative to DMSO control
[11] = A375 (BRAF V600E, Class 1), DC50 at 50% degradation
[12] = A375 (BRAF V600E, Class 1), observed Dmax, % protein degraded relative to DMSO control
[13] = BRAF D594G (Class 3), HCT-116 BRAF−/− cells, DC50 at 50% degradation
[14] = BRAF D594G (Class 3), HCT-116 BRAF−/− cells, observed Dmax relative to DMSO control
[15] = BRAF G466V (Class 3), HCT-116 BRAF−/− cells, DC50 at 50% degradation
[16] = BRAF G466V (Class 3), HCT-116 BRAF−/− cells, observed Dmax relative to DMSO control

T1 sequence (P15056 whole entry G469A): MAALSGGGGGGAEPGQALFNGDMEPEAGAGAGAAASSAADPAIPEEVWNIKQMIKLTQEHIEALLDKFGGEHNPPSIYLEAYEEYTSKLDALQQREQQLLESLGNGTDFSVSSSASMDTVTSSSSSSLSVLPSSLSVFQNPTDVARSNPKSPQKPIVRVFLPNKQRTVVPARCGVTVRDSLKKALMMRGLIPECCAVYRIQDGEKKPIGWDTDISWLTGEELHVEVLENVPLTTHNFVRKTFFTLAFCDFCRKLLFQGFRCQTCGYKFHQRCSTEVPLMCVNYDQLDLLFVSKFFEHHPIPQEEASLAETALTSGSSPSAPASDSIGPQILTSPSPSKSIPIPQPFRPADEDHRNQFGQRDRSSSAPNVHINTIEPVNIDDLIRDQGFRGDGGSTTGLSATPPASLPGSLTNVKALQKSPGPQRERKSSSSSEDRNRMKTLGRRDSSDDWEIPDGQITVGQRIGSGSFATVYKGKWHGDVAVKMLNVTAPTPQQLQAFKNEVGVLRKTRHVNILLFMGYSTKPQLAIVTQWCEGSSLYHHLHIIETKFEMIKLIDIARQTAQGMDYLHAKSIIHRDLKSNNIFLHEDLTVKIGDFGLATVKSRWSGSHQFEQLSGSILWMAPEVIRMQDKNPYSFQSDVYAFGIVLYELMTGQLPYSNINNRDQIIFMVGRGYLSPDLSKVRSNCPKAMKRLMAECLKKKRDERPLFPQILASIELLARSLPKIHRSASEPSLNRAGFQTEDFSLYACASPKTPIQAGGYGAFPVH
T2 sequence (P15056 whole entry V600E, the tested form may be a part): as the sequence (P15056 whole entry G469A) above, with A469G, V600E counted along it
T3 sequence (P15056 whole entry D594G): as the sequence (P15056 whole entry G469A) above, with A469G, D594G counted along it
T4 sequence (P15056 whole entry G466V): as the sequence (P15056 whole entry G469A) above, with G466V, A469G counted along it

DC50 (BRAF G469A; [1]) | Dmax (BRAF G469A; [2]) | DC50 (BRAF V600E; [3]) | Dmax (BRAF V600E; [4]) | DC50 (BRAF D594G; [5]) | Dmax (BRAF D594G; [6]) | DC50 (BRAF G466V; [7]) | Dmax (BRAF G466V; [8]) | DC50 (BRAF G469A; [9]) | Dmax (BRAF G469A; [10]) | DC50 (BRAF V600E; [11]) | Dmax (BRAF V600E; [12]) | DC50 (BRAF D594G; [13]) | Dmax (BRAF D594G; [14]) | DC50 (BRAF G466V; [15]) | Dmax (BRAF G466V; [16]) | Structure (SMILES)
> 0.5 µM | < 30% | 0.05 to 0.5 µM | 30 to 70% | > 0.5 µM | < 30% | > 0.5 µM | < 30% |  |  |  |  |  |  |  |  | CCCS(=O)(=O)Nc1cccc(-c2nc(C(C)(C)C)sc2-c2ccnc(NCC3CCN(CC4CCN(c5ccc(C(=O)N[C@H]6CCC(=O)NC6=O)nc5)CC4)CC3)n2)c1F [Compound 147, 5-{4-[(4-{[(4-{2-tert-butyl-4-[2-fluoro-3-(propane-1-sulfonamido)phenyl]-1,3-thiazol-5-yl}pyrimidin-2-yl)amino]methyl}piperidin-1-yl)methyl]piperidin-1-yl}-N-[(3S)-2,6-dioxopiperidin-3-yl]pyridine-2-carboxamide]
 |  |  |  |  |  |  |  | 0.01 to 0.05 µM | > 70% | < 0.01 µM | > 70% | < 0.01 µM | > 70% | < 0.01 µM | > 70% | CCC(C)S(=O)(=O)Nc1cc(Cl)cc(-c2cn(-c3ccc(N4CCN(CC5CCN(c6ccc([C@@H]7CCC(=O)NC7=O)cn6)CC5)CC4)cc3)nc2-c2ccncc2)c1F (mixture of isomers) [Compound 329, Rac-(R)—N-(5-chloro-3-(1-(4-(4-((1-(5-((S)-2,6-dioxopiperidin-3-yl)pyridin-2-yl)piperidin-4-yl)methyl)piperazin-1-yl)phenyl)-3-(pyridin-4-yl)-1H-pyrazol-4-yl)-2-fluorophenyl)butane-2-sulfonamide]
 |  |  |  |  |  |  |  | 0.01 to 0.05 µM | 30 to 70% | < 0.01 µM | > 70% | < 0.01 µM | 30 to 70% | < 0.01 µM | > 70% | CCN(C)S(=O)(=O)Nc1cc(Cl)cc(-c2cn(-c3ccc(N4CCN(CC5CCN(c6ccc([C@H]7CCC(=O)NC7=O)cc6)CC5)CC4)cc3)nc2-c2ccncc2)c1F [Compound 306, (3R)-3-(4-{4-[(4-{4-[4-(5-chloro-3-{[ethyl(methyl)sulfamoyl]amino}-2-fluorophenyl)-3-(pyridin-4-yl)-1H-pyrazol-1-yl]phenyl}piperazin-1-yl)methyl]piperidin-1-yl}phenyl)piperidine-2,6-dione]
> 0.5 µM | 30 to 70% | < 0.01 µM | > 70% | > 0.5 µM | 30 to 70% | < 0.01 µM | 30 to 70% |  |  |  |  |  |  |  |  | CCCS(=O)(=O)Nc1cccc(-c2nc(C3CCN(C(=O)CN4CCC5(CC4)CN(c4ccc6c(c4)C(=O)N(C4CCC(=O)NC4=O)C6=O)C5)CC3)sc2-c2ccnc(NC)n2)c1F (racemic) [Compound 219, Rac-N-[3-(2-{1-[2-(2-{2-[(3R)-2,6-dioxopiperidin-3-yl]-1,3-dioxo-2,3-dihydro-1H-isoindol-5-yl}-2,7-diazaspiro[3.5]nonan-7-yl)acetyl]piperidin-4-yl}-5-[2-(methylamino)pyrimidin-4-yl]-1,3-thiazol-4-yl)-2-fluorophenyl]propane-1-sulfonamide]
> 0.5 µM | 30 to 70% | < 0.01 µM | > 70% | > 0.5 µM | 30 to 70% | > 0.5 µM | 30 to 70% |  |  |  |  |  |  |  |  | CCCS(=O)(=O)Nc1cccc(-c2nc(C(C)(C)C)sc2-c2ccnc(Nc3ccc(N4CCN(C(=O)C5CCN(c6ccc(C7CCC(=O)NC7=O)cn6)CC5)CC4)c(F)c3)n2)c1F (racemic) [Compound 57, Rac-N-(3-{2-tert-butyl-5-[2-({4-[4-(1-{5-[(3R)-2,6-dioxopiperidin-3-yl]pyridin-2-yl}piperidine-4-carbonyl)piperazin-1-yl]-3-fluorophenyl}amino)pyrimidin-4-yl]-1,3-thiazol-4-yl}-2-fluorophenyl)propane-1-sulfonamide]
> 0.5 µM | < 30% | 0.01 to 0.05 µM | 30 to 70% | > 0.5 µM | 30 to 70% | > 0.5 µM | 30 to 70% |  |  |  |  |  |  |  |  | CCCS(=O)(=O)Nc1cccc(-c2nc(C(C)(C)C)sc2-c2ccnc(Nc3cccc(OC4CCN(C[C@H]5CC[C@H](Oc6ccc(C7CCC(=O)NC7=O)cc6)CC5)CC4)c3)n2)c1F (mixture of isomers) [Compound 72, N-(3-(2-(tert-butyl)-5-(2-((3-((1-(((1R,4r)-4-(4-((RS)-2,6-dioxopiperidin-3-yl)phenoxy)cyclohexyl)methyl)piperidin-4-yl)oxy)phenyl)amino)pyrimidin-4-yl)thiazol-4-yl)-2-fluorophenyl)propane-1-sulfonamide]
> 0.5 µM | < 30% | < 0.01 µM | > 70% | 0.05 to 0.5 µM | 30 to 70% | > 0.5 µM | < 30% |  |  |  |  |  |  |  |  | CCCS(=O)(=O)Nc1cccc(-c2nc(C(C)(C)C)sc2-c2ccnc(Nc3cccc(OC4CCN(C(=O)C5CCN(c6cc(C7CCC(=O)NC7=O)ccn6)CC5)CC4)c3)n2)c1F (racemic) [Compound 100, Rac-N-[3-(2-tert-butyl-5-{2-[(3-{[1-(1-{4-[(3R)-2,6-dioxopiperidin-3-yl]pyridin-2-yl}piperidine-4-carbonyl)piperidin-4-yl]oxy}phenyl)amino]pyrimidin-4-yl}-1,3-thiazol-4-yl)-2-fluorophenyl]propane-1-sulfonamide]
< 0.01 µM | 30 to 70% | < 0.01 µM | > 70% | > 0.5 µM | 30 to 70% | 0.01 to 0.05 µM | 30 to 70% |  |  |  |  |  |  |  |  | CCCS(=O)(=O)Nc1cccc(-c2nc(C)sc2-c2ccnc(Nc3ccc(N4CCN(CC5CCN(c6ccc(C7CCC(=O)NC7=O)cn6)CC5)CC4)cn3)n2)c1F (racemic) [Compound 62, Rac-N-[3-(5-{2-[(5-{4-[(1-{5-[(3R)-2,6-dioxopiperidin-3-yl]pyridin-2-yl}piperidin-4-yl)methyl]piperazin-1-yl}pyridin-2-yl)amino]pyrimidin-4-yl}-2-methyl-1,3-thiazol-4-yl)-2-fluorophenyl]propane-1-sulfonamide]
 |  |  |  |  |  |  |  | 0.01 to 0.05 µM | 30 to 70% | < 0.01 µM | > 70% | < 0.01 µM | 30 to 70% | < 0.01 µM | > 70% | CCC(C)S(=O)(=O)Nc1cc(Cl)cc(-c2cn(-c3ccc(N4CCN(CC5CCN(c6ccc([C@H]7CCC(=O)NC7=O)cc6)CC5)CC4)cc3)nc2-c2ccncc2)c1F (mixture of isomers) [Compound 330, (2RS)—N-{5-chloro-3-[1-(4-{4-[(1-{4-[(3R)-2,6-dioxopiperidin-3-yl]phenyl}piperidin-4-yl)methyl]piperazin-1-yl}phenyl)-3-(pyridin-4-yl)-1H-pyrazol-4-yl]-2-fluorophenyl}butane-2-sulfonamide]
> 0.5 µM | < 30% | 0.05 to 0.5 µM | 30 to 70% | > 0.5 µM | < 30% | > 0.5 µM | < 30% |  |  |  |  |  |  |  |  | CCCS(=O)(=O)Nc1cccc(-c2nc(C(C)(C)C)sc2-c2ccnc(NC3CC4(C3)CN(CC3CCN(c5ccc(C(=O)NC6CCC(=O)NC6=O)cc5)CC3)C4)n2)c1F (racemic) [Compound 170, Rac-4-[4-({6-[(4-{2-tert-butyl-4-[2-fluoro-3-(propane-1-sulfonamido)phenyl]-1,3-thiazol-5-yl}pyrimidin-2-yl)amino]-2-azaspiro[3.3]heptan-2-yl}methyl)piperidin-1-yl]-N-[(3R)-2,6-dioxopiperidin-3-yl]benzamide]
